Measured values published in the supplement of paper PMC4858399.
Counter-ions that a name gives are not always drawn.

Experiments:
[1] = test system: Caenorhabditis elegans N2; assay: mean nematode size ln(EXT) after 48 h, plate-adjusted (DMSO control set to 6) (ln(EXT), control-adjusted); higher = larger nematodes / less growth inhibition; settings: exposure time 48 h
Summary of the method: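 A growth model removed debris from Biosort extinction readings taken on each worm. These worms were synchronised C. elegans N2 L1 larvae, 50 per well in 4–6 wells per treatment, grown for 48 h at 20°C in K-medium with killed OP50, 1% DMSO and 0.5–200 µM chemical. Readings were natural-logged and averaged by well to give mean size. On each plate, the vehicle control mean was subtracted and 6 was added.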

[2] = test system: Caenorhabditis elegans N2; assay: lowest effective concentration for larval growth inhibition (size below effect threshold); higher = less potent; settings: exposure time 48 h
Summary of the method: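 In 96-well plates, 50 C. elegans N2 L1 larvae per well were cultured at 20°C for 48 h in K-medium with killed bacteria and 1% DMSO, plus the chemical at 0.5, 1, 5, 10, 50, 100 or 200 µM. Size was measured as per-worm extinction on a Biosort and log-transformed into well means. Taking the first dose where the plate-adjusted mean size sits under 5.665 and stays there at higher doses gives the lowest effective concentration.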

Structure (SMILES)	mean nematode size ln(EXT) (ln) ([1]; 0.5 µM)	mean nematode size ln(EXT) (ln) ([1]; 1 µM)	mean nematode size ln(EXT) (ln) ([1]; 5 µM)	mean nematode size ln(EXT) (ln) ([1]; 10 µM)	mean nematode size ln(EXT) (ln) ([1]; 50 µM)	mean nematode size ln(EXT) (ln) ([1]; 100 µM)	mean nematode size ln(EXT) (ln) ([1]; 200 µM)	lowest effective concentration [2] [µM]
O=C(OCCOCCOC(=O)c1ccccc1)c1ccccc1 [Di(ethylene glycol) dibenzoate]	5.89	5.82	5.77	5.76	5.71	5.79	5.66	200
Cc1cccc([N+](=O)[O-])c1C [1,2-Dimethyl-3-nitrobenzene]	5.81	5.89	5.83	5.77	5.86	5.83	5.79	> 200
CCn1nc(Cc2ccccc2)cc1C1CCN(C[C@H]2C[C@H](N(C)[C@@H](C(=O)O)C(C)C)C[C@@H]2c2cccc(F)c2)CC1	5.93	5.9	5.91	5.93	5.92	5.83	5.73	> 200
Cc1ccc([N+](=O)[O-])cc1C [1,2-Dimethyl-4-nitrobenzene]	5.84	5.96	5.89	5.8	5.86	5.8	5.81	> 200
CCCCC(CC)CO (configuration not stated) [2-Ethyl-1-hexanol]	5.86	5.82	5.79	5.75	5.7	5.85	5.92	> 200
Cc1cn([C@H]2C=C[C@@H](CO)O2)c(=O)[nH]c1=O [Stavudine]	5.47	5.53	5.6	5.67	5.69	5.7	5.93	> 200
O=C(O)C1=NN(c2ccc(S(=O)(=O)O)cc2)C(=O)C1N=Nc1ccc(S(=O)(=O)O)cc1 (configuration not stated) [Tartrazine]	6.02	5.96	5.97	5.98	6.03	5.85	5.92	> 200
CCC(C)(NC(=O)c1cc(Cl)c(C)c(Cl)c1)C(=O)CCl (configuration not stated) [Zoxamide]	5.75	5.81	5.67	5.64	5.48	4.67	5.7	> 200
Cn1c(=O)c2c(ncn2C)n(C)c1=O [Caffeine]	5.87	5.94	5.87	5.91	5.94	5.85	5.75	> 200
CN(C)C(=O)NC1(c2ccccc2)CCN(CC[C@@]2(c3ccc(F)c(F)c3)CN(C(=O)c3ccccc3)CCO2)CC1	5.89	5.86	5.86	5.8	5.9	5.92	5.68	> 200
CNC(=O)Oc1cccc2ccccc12 [Carbaryl]	5.78	5.79	5.6	5.71	5.83	5.72	5.67	> 200
Oc1ccc(O)cc1 [Hydroquinone]	5.99	6.02	6.04	6.02	6.1	6.09	5.72	> 200
CNC(=O)O/N=C(\SC)C(=O)N(C)C [Oxamyl]	6.13	6.48	6.09	6.33	6.42	6.43	5.75	> 200
CC(CO)OC(C)CO.CC(O)COCC(C)O (configuration not stated) [Dipropylene glycol]	5.74	5.73	5.79	5.87	5.74	5.66	5.87	> 200
O=S(=O)(O)C(F)(F)C(F)(F)C(F)(F)C(F)(F)F [Potassium nonafluoro-1-butanesulfonate]	5.49	5.58	5.55	5.7	5.7	5.65	5.81	> 200
C[C@@]1(c2ccc(Oc3ccccc3)cc2)OC(=O)N(Nc2ccccc2)C1=O (racemic) [Famoxadone]	5.8	5.77	5.7	5.8	5.75	5.83	5.67	> 200
Nc1nc(=O)c2nc(CNc3ccc(C(=O)N[C@@H](CCC(=O)O)C(=O)O)cc3)cnc2[nH]1 [Folic acid]	6.04	5.96	5.91	6.04	6.02	6	5.82	> 200
CS(=O)(=O)OCCCCOS(C)(=O)=O [Busulfan]	5.98	5.93	5.94	5.95	5.98	5.94	5.8	> 200
Cn1c(-c2ccccc2)cc(-c2ccccc2)[n+]1C [Difenzoquat metilsulfate]	6.06	6.04	6.06	6.07	5.99	6.1	5.9	> 200
Oc1ccccc1 [Phenol]	6.09	5.98	6.01	5.98	5.94	5.92	6.02	> 200
O=C(O)c1cc(Oc2ccc(C(F)(F)F)cc2Cl)ccc1[N+](=O)[O-] [Acifluorfen]	5.84	5.92	5.76	6.05	6.01	6.24	5.94	> 200
CCCN(CCC)N=O [N-Nitrosodipropylamine]	5.88	5.93	5.92	5.84	5.87	5.72	5.97	> 200
c1ccc2c(c1)Nc1ccccc1S2 [Phenothiazine]	6.07	6.03	5.92	5.8	5.55	5.59	5.99	> 200
CCN(CC)C(=O)c1cccc(C)c1 [Diethyltoluamide]	5.86	5.86	5.91	6.14	6	5.91	5.85	> 200
CC1=C(/C=C/C(C)=C/C=C/C(C)=C/CO)C(C)(C)CCC1 [Retinol]	5.92	5.89	5.91	5.75	5.9	5.84	5.68	> 200
OCC(CO)(CBr)CBr [2,2-Bis(bromomethyl)-1,3-propanediol]	6.41	5.91	5.99	5.63	5.67	5.93	5.64	200
CC(C)C1(C)N=C(c2ncccc2C(=O)O)NC1=O (configuration not stated) [Imazapyr]	5.84	5.98	6.01	5.97	5.9	5.84	5.77	> 200

Structure (SMILES)	mean nematode size ln(EXT) (ln) ([1]; 0.5 µM)	mean nematode size ln(EXT) (ln) ([1]; 1 µM)	mean nematode size ln(EXT) (ln) ([1]; 5 µM)	mean nematode size ln(EXT) (ln) ([1]; 10 µM)	mean nematode size ln(EXT) (ln) ([1]; 50 µM)	mean nematode size ln(EXT) (ln) ([1]; 100 µM)	mean nematode size ln(EXT) (ln) ([1]; 200 µM)	lowest effective concentration [2] [µM]
CCCCCCCCCCCCCCCC [Hexadecane]	5.93	5.9	5.89	5.89	5.86	5.83	5.72	> 200
CCCCCCCCCCCCCCCCCC(=O)O [Stearic acid]	6.02	5.96	6.03	5.96	5.87	5.85	5.91	> 200
O=C(O)COc1ccc(Cl)cc1Cl [2,4-Dichlorophenoxyacetic acid (2,4-D)]	5.91	5.88	5.96	5.97	5.83	6.02	5.89	> 200
CCCOC(=O)NCCCN(C)C [Propamocarb hydrochloride]	5.84	5.93	5.9	5.93	6.01	5.91	5.89	> 200
N#CN [Cyanamide]	5.91	5.96	6.01	6	5.96	6.01	5.92	> 200
O=C1CCCO1 [4-Butyrolactone]	6.1	6.08	6	6.1	6.09	6.02	5.81	> 200
Cc1ccc(O)c(C)c1 [2,4-Dimethylphenol]	5.82	5.97	5.96	5.87	5.85	5.84	5.72	> 200
C=CCOC(=O)C(C)(C)OC(=O)c1cc(-n2c(=O)cc(C(F)(F)F)n(C)c2=O)ccc1Cl [Butafenacil]	5.9	5.89	5.87	5.88	5.84	5.92	5.94	> 200
CC(=O)OC1CC(C)OC(C)O1 (configuration not stated) [2,6-Dimethyl-1,3-dioxan-4-ol acetate]	5.93	5.93	5.88	5.95	6.12	5.75	5.84	> 200
CC(Oc1cccc(Cl)c1)C(=O)O (configuration not stated) [Cloprop]	5.97	5.98	6.03	6.09	6.01	5.99	5.69	> 200
NC(=O)N1c2ccccc2C=Cc2ccccc21 [Carbamazepine]	5.86	5.85	5.88	5.83	5.88	5.85	5.67	> 200
C=CC(N)=O [Acrylamide]	6	5.68	5.69	5.76	5.89	5.76	5.65	200
Nc1nc(N)nc(NC2CC2)n1 [Cyromazine]	5.45	5.67	5.56	5.57	5.42	6.14	5.94	> 200
O=[N+]([O-])c1ccc(Cl)cc1 [1-Chloro-4-nitrobenzene]	5.94	5.94	5.97	5.87	6.01	6	5.75	> 200
CC(C)=CCC/C(C)=C/C=O [3,7-Dimethyl-2,6-octadienal]	5.72	5.74	5.77	5.84	5.78	5.88	5.73	> 200
CC(=O)OCCC(C)C [Isoamyl acetate]	5.95	5.84	5.89	5.79	5.86	5.83	5.75	> 200
CCCC(=O)O [Butanoic acid]	5.86	5.86	5.86	5.86	5.94	6	5.71	> 200
CCCCN(CCCC)CCCC [Tributylamine]	5.91	6	5.98	6.1	5.96	5.92	5.8	> 200
COCCOCCO [Diethylene glycol monomethyl ether]	5.87	5.91	5.93	5.85	5.82	5.94	5.68	> 200
Clc1ccccc1-c1nnc(-c2ccccc2Cl)nn1 [Clofentezine]	6.25	6.03	6.11	5.96	5.86	5.98	5.73	> 200
N#C/N=C1\SCCN1Cc1ccc(Cl)nc1 [Thiacloprid]	5.99	5.88	5.94	5.96	5.96	5.89	5.81	> 200
OB(O)O [Boric acid]	6.06	6.07	6.08	6.13	6.14	6.18	5.95	> 200
CCN(CC)CCO [N,N-Diethylethanolamine]	5.86	5.89	5.91	5.81	5.83	5.76	5.78	> 200
NC1CCCCC1 [Cyclohexylamine]	5.84	5.95	5.82	5.85	5.98	5.83	5.86	> 200
Cc1ccc(N)cc1 [4-Methyl-benzeneamine]	5.89	5.85	5.89	5.88	5.79	5.85	5.71	> 200
C=CCc1ccc(OC)c(OC)c1 [Methyleugenol]	6	5.97	6.02	5.98	5.99	5.99	5.7	> 200
CC(=O)Nc1ccc(O)cc1 [Acetaminophen]	6.04	6.05	6.04	6.12	6.09	6.04	5.74	> 200
